From publication PMC4658394 (ChemMedChem, 2015)
One block for each compound: values may come before it.

Tests used:
MMP-2 = molecular target: T1, MMP-2 (Homo sapiens, UniProt P08253); assay: MMP-2 fluorogenic substrate assay with competing metalloproteins; type: biochemical; conditions: MMP-2 2.7 nM
T1 sequence (P08253 110-660): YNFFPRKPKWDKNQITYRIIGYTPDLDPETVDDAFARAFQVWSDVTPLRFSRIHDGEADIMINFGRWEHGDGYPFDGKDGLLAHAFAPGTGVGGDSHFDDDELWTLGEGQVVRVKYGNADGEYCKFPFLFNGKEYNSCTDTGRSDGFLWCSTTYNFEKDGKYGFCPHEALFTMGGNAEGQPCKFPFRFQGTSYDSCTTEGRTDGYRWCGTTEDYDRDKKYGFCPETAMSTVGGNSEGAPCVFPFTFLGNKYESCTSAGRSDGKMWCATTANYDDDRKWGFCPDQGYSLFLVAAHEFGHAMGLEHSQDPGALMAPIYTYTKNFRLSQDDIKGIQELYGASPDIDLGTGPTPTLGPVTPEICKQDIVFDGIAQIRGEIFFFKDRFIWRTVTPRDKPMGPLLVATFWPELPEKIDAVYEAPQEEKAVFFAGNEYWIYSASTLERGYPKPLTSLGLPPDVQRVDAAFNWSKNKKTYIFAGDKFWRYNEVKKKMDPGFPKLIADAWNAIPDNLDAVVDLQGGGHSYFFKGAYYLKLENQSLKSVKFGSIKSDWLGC

MMP-12 = MMP-12 (Homo sapiens, UniProt P39900); assay: MMP-12 fluorogenic substrate assay with competing metalloprotein MT; conditions: MMP-12 0.68 nM
HDAC-1 = HDAC-1 (Homo sapiens, UniProt Q13547); assay: HDAC-1 fluorogenic assay with competing metalloprotein MT; type: biochemical; conditions: 53 nM SAHA, HDAC-1 0.25 μM, various concentrations of MT
HDAC-6 = molecular target: T2, HDAC-6 (Homo sapiens, UniProt Q9UBN7); assay: HDAC-6 fluorogenic assay with competing metalloprotein MT; type: biochemical; conditions: 22 nM SAHA, HDAC-6 0.16 μM, various concentrations of MT
T2 sequence (Q9UBN7 1-1215): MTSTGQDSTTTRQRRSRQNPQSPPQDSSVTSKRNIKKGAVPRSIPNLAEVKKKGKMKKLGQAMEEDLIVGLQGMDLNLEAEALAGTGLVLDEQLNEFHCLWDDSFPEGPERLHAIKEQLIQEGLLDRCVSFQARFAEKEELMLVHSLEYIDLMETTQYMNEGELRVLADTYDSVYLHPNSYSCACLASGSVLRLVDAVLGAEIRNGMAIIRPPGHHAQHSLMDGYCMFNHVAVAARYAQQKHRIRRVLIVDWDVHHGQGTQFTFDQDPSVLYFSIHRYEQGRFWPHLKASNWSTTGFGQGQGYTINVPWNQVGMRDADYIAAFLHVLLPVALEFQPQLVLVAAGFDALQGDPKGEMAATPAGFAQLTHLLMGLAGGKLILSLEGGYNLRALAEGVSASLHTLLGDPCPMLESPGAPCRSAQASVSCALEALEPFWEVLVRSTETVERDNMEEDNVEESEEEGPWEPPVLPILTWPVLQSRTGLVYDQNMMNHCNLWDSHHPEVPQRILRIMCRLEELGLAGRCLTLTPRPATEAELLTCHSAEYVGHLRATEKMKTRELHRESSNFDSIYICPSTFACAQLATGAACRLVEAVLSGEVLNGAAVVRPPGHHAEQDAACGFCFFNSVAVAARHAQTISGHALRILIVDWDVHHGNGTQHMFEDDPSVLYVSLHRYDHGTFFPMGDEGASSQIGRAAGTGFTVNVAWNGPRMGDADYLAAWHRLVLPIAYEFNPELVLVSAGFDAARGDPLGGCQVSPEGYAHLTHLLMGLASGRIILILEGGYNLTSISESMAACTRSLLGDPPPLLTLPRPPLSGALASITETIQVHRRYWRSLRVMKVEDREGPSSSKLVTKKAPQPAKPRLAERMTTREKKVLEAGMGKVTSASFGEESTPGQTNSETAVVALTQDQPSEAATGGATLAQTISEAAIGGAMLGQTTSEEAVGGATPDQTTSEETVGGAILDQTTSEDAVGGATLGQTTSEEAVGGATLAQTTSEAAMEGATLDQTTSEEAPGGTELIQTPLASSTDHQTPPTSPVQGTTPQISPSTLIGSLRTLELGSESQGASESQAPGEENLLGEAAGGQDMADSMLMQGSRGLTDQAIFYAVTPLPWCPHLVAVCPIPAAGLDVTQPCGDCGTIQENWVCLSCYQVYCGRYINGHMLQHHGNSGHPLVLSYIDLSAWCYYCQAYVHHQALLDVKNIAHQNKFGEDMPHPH

Chain of MMP-12 (P39900 106-470): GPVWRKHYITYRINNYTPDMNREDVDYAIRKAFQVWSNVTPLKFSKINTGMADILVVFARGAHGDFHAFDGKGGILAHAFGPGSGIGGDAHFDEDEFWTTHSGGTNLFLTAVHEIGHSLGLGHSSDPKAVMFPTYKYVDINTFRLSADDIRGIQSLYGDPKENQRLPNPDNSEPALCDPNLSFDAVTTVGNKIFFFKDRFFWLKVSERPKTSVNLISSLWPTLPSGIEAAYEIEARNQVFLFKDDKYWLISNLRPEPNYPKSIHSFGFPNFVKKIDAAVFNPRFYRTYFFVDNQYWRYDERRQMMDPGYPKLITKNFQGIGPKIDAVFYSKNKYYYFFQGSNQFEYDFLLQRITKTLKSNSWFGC
Chain of HDAC-1 (Q13547 whole entry): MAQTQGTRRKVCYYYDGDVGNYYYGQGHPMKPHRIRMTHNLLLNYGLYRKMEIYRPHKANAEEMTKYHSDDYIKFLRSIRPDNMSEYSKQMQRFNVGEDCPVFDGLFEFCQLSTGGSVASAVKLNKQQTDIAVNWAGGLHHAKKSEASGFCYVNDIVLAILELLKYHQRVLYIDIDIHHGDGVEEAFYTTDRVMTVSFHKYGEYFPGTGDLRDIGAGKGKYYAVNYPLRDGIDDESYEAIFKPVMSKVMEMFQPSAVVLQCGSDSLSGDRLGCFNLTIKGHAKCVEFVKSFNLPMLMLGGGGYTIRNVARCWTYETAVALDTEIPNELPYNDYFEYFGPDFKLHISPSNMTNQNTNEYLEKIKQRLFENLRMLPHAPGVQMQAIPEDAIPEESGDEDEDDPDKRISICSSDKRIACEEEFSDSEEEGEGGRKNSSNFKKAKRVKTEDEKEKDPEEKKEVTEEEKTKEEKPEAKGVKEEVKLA

- MMP-2 inhibition in the presence of combinations of competing proteins (MMP-2; CGS 3 nM, MT, Mb, Tf, hCAII combinations 400 nM each): no drop in inhibition
- specificity for MMP-2 in the presence of excess MT (MMP-2; CGS 3 nM or NSA 30 nM, MT up to 50 equiv over MPi): maintain their specificity
SMILES: COc1ccc(S(=O)(=O)N(Cc2cccnc2)[C@@H](C(=O)NO)C(C)C)cc1 [CGS]
- effect of Mb, Tf or hCAII as competing protein on MMP-2 inhibition (MMP-2; NSA 30 nM or CGS 3 nM, up to 166 equiv over CGS, up to 50 equiv over NSA): not titrating the MPi away from the MMP-2 target

- effect of large excess of MT on activity against MMP-12 (MMP-12; 30 nM inhibitor, up to 9 μM MT (300 equiv over inhibitor)): did not perturb the activity
- IC50 (MMP-12; read-out: IC50 against MMP-12): 30 nM
SMILES: O=C(NCc1ccc(-c2ccccc2)cc1)c1cccc(=O)n1O [1,2-HOPO-2]

SMILES: O=C(CCCCCCC(=O)Nc1ccccc1)NO [SAHA, suberolylanilide hydroxamic acid]
- change in SAHA activity against HDAC-1 with increasing MT (HDAC-1): no substantial decrease
- change in SAHA activity against HDAC-6 with increasing MT (HDAC-6): no substantial decrease
